Data set [1] relates to arylhydrocarbon receptor (AHR). Put plainly: Microarray gene analysis on spinal cord tissue RNA after intraperitoneal dosing. It is filed as in vivo, rats. The procedure:
Based on available dosing data, rats were dosed with 1, 5, 10, 15 or 30 mg/kg ciclopirox (intraperiotoneal; 3 animals per concentration). Spinal cord, liver and skeletal muscle tissue was harvested 6-hours after drug delivery. Real-time rt-PCR was performed on RNA extracted from tissues to examine the expression of p21waf1/cip1, arginase-1, and VEGF in order to determine what might be the most efficacious dose.
Microarray gene analysis was also performed on spinal cord tissue RNA to determine gene expression changes that correlate with treatment and dose in an unbiased manner.

In data set [2] the test system is contusion injury at the level of T-8. The data set is described as follows: Spinal cord contusion injury, single injection after injury. It is filed as in vivo, rats.
Data set [3] deals with mouse or human p21 promoter. The data set is described as follows: p21-luciferase reporter screen in stably transfected HT22 cells. It is filed as cell-based. The conditions noted are these: HT22 lines stably expressing p21-luciferase; positive control. The procedure:
To identify novel activators of p21, fragments of the mouse or human p21 promoter were subcloned into the pGL3 basic promoter-reporter construct (see promoter sequence information). The resultant p21-luciferase reporter plasmids were each then stably transfected into a mouse hippocampal cell line, HT22. […] Drugs were added to cells stably expressing p21-luciferase in a 96 well format. The HDAC inhibitor trichostatin A was used as a positive control. After 12 hours of drug treatment, the cells were lysed and luciferase activity was measured using a desktop luminometer. Cell viability was monitored in parallel, so that agents that induce toxicity can quickly be eliminated. Secondary screens including real time PCR or Western blots of p21 were monitored in primary neurons.
On the technique in general: Reporter assays use an easily measured gene product as a stand-in for the process of interest.

In the case of `Cc1cc(C2CCCCC2)n(O)c(=O)c1` [ciclopirox], the “AHR gene expression change in spinal cord (microarray)” value in data set [1] (rats, 1, 5, 10, 15 or 30 mg/kg intraperitoneal, tissue harvested 6 hours after drug delivery) is on record as “dose-dependent ciclopirox-regulated gene”. Besides, the “induction of transcription in the spinal cord” value in data set [1] (rats, intraperitoneal, in vivo) is reported as “could induce transcription in the spinal cord”. In data set [1] (rats, intraperitoneal, inferred from spinal cord gene expression changes), the “blood brain barrier penetration” value is “could penetrate the blood brain barrier”. Moreover, the “protection (lesion volume)” value in data set [2] (single 30 mg/kg intraperitoneal injection 30 minutes after contusion injury at T-8) is reported as “significant protection (reduced lesion volume)”. Also, in data set [2] (single injection after injury), the “effect on behavior (functional improvement)” value was “little functional improvement”.
`CC(/C=C/C(=O)NO)=C\[C@@H](C)C(=O)c1ccc(N(C)C)cc1` [trichostatin A]: the p21-luciferase response result in data set [3] was “predicted increases in p21-luciferase”.

(Values after patent US9029322B2, “Compounds for enhancing p21 expression and methods of use thereof” (Cornell University, priority 2007, dated 2015).)
